Reference: US6451254B1, “Sterilization of diffusion-restricted area by revaporizing the condensed vapor” (Ethicon, Inc., priority 1998, dated 2002)
Read-outs that look alike come from different tables or passages of the source.

What was measured:
[1] = test system: Bacillus stearothermophilus spores; conditions: 3 g of 59% hydrogen peroxide, 5 Minutes Vaporization
Source text: The Petri dish contained a biological challenge consisting of 2.2×10^6 Bacillus stearothermophilus spores on a stainless steel coupon. A coupon was also placed in the center of each of the three lumens. The coupon in the Petri dish was used as a test of the effectiveness of the method at sterilizing the exterior of a device, and the coupons in the lumens were a test of the effectiveness of sterilizing the interior of the lumens. In Example 2, the test of Example 1 with 3 g of 59% hydrogen peroxide was repeated with the addition of 20 minutes exposure time to the hydrogen peroxide vapor.

[2] = test system: Bacillus stearothermophilus spores; conditions: 3 g of 59 wt % hydrogen peroxide, 5 Minutes Vaporization and 20 Minutes Diffusion
Experimental: (§1) The Petri dish contained a biological challenge consisting of 2.2×10^6 Bacillus stearothermophilus spores on a stainless steel coupon. A coupon was also placed in the center of each of the three lumens. The coupon in the Petri dish was used as a test of the effectiveness of the method at sterilizing the exterior of a device, and the coupons in the lumens were a test of the effectiveness of sterilizing the interior of the lumens.
In this example, the procedure of Example 3 was carried out, but the valve between the sterilization chamber and the vacuum pump was closed after the desired pressure was reached. In Example 3, constant pressure was maintained throughout the 20 minutes of diffusion.
The Petri dish and three lumens were placed in a tray in a 173 L sterilization chamber, and the chamber was evacuated to 0.4 torr. A total of 3 g of 59 wt % hydrogen peroxide was vaporized in the vaporizer and diffused into the sterilization chamber over a period of 5 minutes, and the pressure in the sterilization chamber was reduced to the desired value, and the valve between the sterilization chamber and the vacuum pump was closed. The hydrogen peroxide was then allowed to diffuse in the sterilization chamber for 20 minutes.

[3] = test system: Bacillus stearothermophilus spores; conditions: 5 minutes vaporization, no revaporization
Source text: In Example 1, the following items were placed in a CSR-wrapped tray in a 173 L sterilization chamber: Open Petri dish 2.48 mm id×50 cm Teflon lumen 2.48 mm id×75 cm Teflon lumen 2.48 mm id×100 cm Teflon lumen 40 pieces of medical devices The Petri dish contained a biological challenge consisting of 2.2×10^6 Bacillus stearothermophilus spores on a stainless steel coupon. A coupon was also placed in the center of each of the three lumens. The coupon in the Petri dish was used as a test of the effectiveness of the method at sterilizing the exterior of a device, and the coupons in the lumens were a test of the effectiveness of sterilizing the interior of the lumens. Three experiments were performed in which 1, 2, and 3 g of 59 wt % hydrogen peroxide were introduced into the vaporizer after the chamber was evacuated to 0.4 torr and allowed to vaporize and diffuse into the chamber for 5 minutes.

[4] = test system: Bacillus stearothermophilus spores
Source text: The Petri dish contained a biological challenge consisting of 2.2×10^6 Bacillus stearothermophilus spores on a stainless steel coupon. A coupon was also placed in the center of each of the three lumens. The coupon in the Petri dish was used as a test of the effectiveness of the method at sterilizing the exterior of a device, and the coupons in the lumens were a test of the effectiveness of sterilizing the interior of the lumens. In the following experiment, the condensed hydrogen peroxide was revaporized multiple times. The following procedure was followed in the experiment. A tray containing the Petri dish and three lumens with inoculated blades was placed in a 173 L sterilization chamber, as in the other examples, and the chamber was evacuated to 0.4 torr. The experiment with multiple revaporizations was conducted as follows: 1. 3 grams of 59% hydrogen peroxide were introduced into the vaporizer. 2. The hydrogen peroxide was vaporized and introduced into the sterilization chamber over a period of 5 minutes. 3. The pressure was reduced to 4 torr for 5 minutes to revaporize the hydrogen peroxide. 4. The sterilization chamber was vented to 1 atmosphere pressure for 0.5 minutes to condense the vapor again. 5. The pressure in the sterilization chamber was reduced to 4 torr and maintained at a constant pressure of 4 torr for 14.5 minutes. The total cycle lasted 25 minutes.

[5] = test system: Bacillus stearothermophilus spores; conditions: 3 g of 59 wt % hydrogen peroxide, 5 Minutes Vaporization and 20 Minutes Diffusion; remark: listed apart in the source
Source text: as §1
In Example 3, the pressure in the sterilization chamber was reduced to 0.4 torr, a total of 3 g of 59 wt % hydrogen peroxide was placed in the vaporizer, and the hydrogen peroxide was vaporized and diffused into the sterilization chamber for 5 minutes. The hydrogen peroxide was then allowed to diffuse at various pressures for 20 minutes. The pressure in the sterilization chamber was at constant pressure by controlling the pressure with an automatic valve between the sterilization chamber and the vacuum pump.
The experiment on the first line of Table 5 is the control experiment, in which the hydrogen peroxide was vaporized into the chamber and allowed to diffuse with the valve between the sterilization chamber and the vacuum pump closed. The pressure in the sterilization chamber was 9.5 torr, which is higher than the vapor pressure of 43 mole % hydrogen peroxide/water solution at 20° C., the approximate temperature of the equipment in the sterilization chamber, as shown in Table 2.
In the experiments described on the following lines of Table 5, the 3 grams of 59 wt % hydrogen peroxide was vaporized for 5 minutes.
The pressure in the sterilization chamber was then reduced, and the condensed vapor was vaporized and allowed to diffuse at constant pressure for 20 minutes. The interior of the sterilization chamber was maintained at a constant pressure by the automatic valve between the sterilization chamber and the vacuum pump. The constant pressure in the sterilization chamber ranged from 7 torr to 1 torr.
In the examples on the following lines, the same procedure was followed, vaporizing 3 g of 59 wt % hydrogen peroxide for 5 minutes and diffusing at constant pressure for 20 minutes. The constant diffusion pressure ranged from 1 to 6 torr.

[6] = test system: Bacillus stearothermophilus spores; conditions: 3 g of 57% hydrogen peroxide, 5 Minutes Vaporization
Source text: The Petri dish contained a biological challenge consisting of 2.2×10^6 Bacillus stearothermophilus spores on a stainless steel coupon. A coupon was also placed in the center of each of the three lumens. The coupon in the Petri dish was used as a test of the effectiveness of the method at sterilizing the exterior of a device, and the coupons in the lumens were a test of the effectiveness of sterilizing the interior of the lumens. In Example 5, the Petri dish and three lumens were placed in a tray with 40 medical devices in the sterilization chamber, the chamber was evacuated to 0.4 torr, 3 g of 57% hydrogen peroxide were vaporized into the chamber over 5 minutes, and the chamber was vented to 1 atmosphere. The hydrogen peroxide was then allowed to diffuse for a total of 20 minutes, either at 1 atmosphere pressure or 4 torr. In the first experiment in Table 7, the sterilization chamber was vented to atmosphere after the hydrogen peroxide was vaporized into the sterilization chamber, and the hydrogen peroxide vapor was allowed to diffuse at 1 atmosphere for 19.5 minutes. […] The first experiment was the control experiment for the second experiment. In the second experiment in Table 7, the sterilization chamber was vented to atmosphere for 0.5 minutes, then the pressure in the sterilization chamber was reduced to 4 torr and controlled at that pressure for a total of 19.5 minutes.

[7] = Valve closed at 1 torr, final pressure about 1.7 torr
[8] = Valve closed at 2 torr, final pressure about 2.8 torr
[9] = 3 grams of 59% hydrogen peroxide, Cycle with Two-Vaporization Process: 5 minutes vaporization, 4 torr 5 minutes, vent 1 atmosphere 0.5 minutes, 4 torr 14.5 minutes
[10] = control: 5 Minutes Vaporization plus 20 Minutes Diffusion at 1 atm.
[11] = Reducing and controlling at 1 torr
[12] = Reducing and controlling at 2 torr
[13] = Reducing and controlling at 3 torr
[14] = Reducing and controlling at 4 torr
[15] = Reducing and controlling at 5 torr
[16] = Reducing and controlling at 6 torr
[17] = Reducing and controlling at 7 torr
[18] = Without pump-down, final pressure about 9.5 torr
[19] = 0.5 Minutes Vent Plus 19.5 Minutes Reducing and Controlling at 4 Torr
[20] = 0.5 Minutes Vent Plus 19.5 Minutes at 1 Atm.

OO [hydrogen peroxide]
Sterility Results In 2.48 mm × 50 cm lumen ([1]; Diffusion Time 0 Minute): −
Sterility Results In 2.48 mm × 75 cm lumen ([1]; Diffusion Time 0 Minute): +
Sterility Results In 2.48 × 100 cm lumen ([1]; Diffusion Time 0 Minute): +
Sterility Results In Open Petri Dish ([1]; Diffusion Time 0 Minute): −
Sterility Results In 2.48 mm × 50 cm lumen ([1]; Diffusion Time 20 Minutes): −
Sterility Results In 2.48 mm × 75 cm lumen ([1]; Diffusion Time 20 Minutes): +
Sterility Results In 2.48 × 100 cm lumen ([1]; Diffusion Time 20 Minutes): +
Sterility Results In Open Petri Dish ([1]; Diffusion Time 20 Minutes): −
Sterility Results In 2.48 mm × 50 cm lumen [2, 7]: −
Sterility Results In 2.48 mm × 75 cm lumen [2, 7]: −
Sterility Results In 2.48 mm × 100 cm lumen [2, 7]: +
Sterility Results In Open Petri Dish [2, 7]: −
Sterility Results In 2.48 mm × 50 cm lumen [2, 8]: −
Sterility Results In 2.48 mm × 75 cm lumen [2, 8]: −
Sterility Results In 2.48 mm × 100 cm lumen [2, 8]: −
Sterility Results In Open Petri Dish [2, 8]: −
Sterility Results In 2.48 mm × 50 cm Teflon lumen ([3]; 1 g 59% hydrogen peroxide): −
Sterility Results In 2.48 mm × 75 cm Teflon lumen ([3]; 1 g 59% hydrogen peroxide): +
Sterility Results In 2.48 × 100 cm Teflon lumen ([3]; 1 g 59% hydrogen peroxide): +
Sterility Results In Open Petri Dish ([3]; 1 g 59% hydrogen peroxide): −
Sterility Results In 2.48 mm × 50 cm Teflon lumen ([3]; 2 g 59% hydrogen peroxide): −
Sterility Results In 2.48 mm × 75 cm Teflon lumen ([3]; 2 g 59% hydrogen peroxide): +
Sterility Results In 2.48 × 100 cm Teflon lumen ([3]; 2 g 59% hydrogen peroxide): +
Sterility Results In Open Petri Dish ([3]; 2 g 59% hydrogen peroxide): −
Sterility Results In 2.48 mm × 50 cm Teflon lumen ([3]; 3 g 59% hydrogen peroxide): −
Sterility Results In 2.48 mm × 75 cm Teflon lumen ([3]; 3 g 59% hydrogen peroxide): +
Sterility Results In 2.48 × 100 cm Teflon lumen ([3]; 3 g 59% hydrogen peroxide): +
Sterility Results In Open Petri Dish ([3]; 3 g 59% hydrogen peroxide): −
Sterility Results In 2.48 mm × 50 cm lumen [4, 9]: −
Sterility Results In 2.48 mm × 75 cm lumen [4, 9]: −
Sterility Results In 2.48 mm × 100 cm lumen [4, 9]: −
Sterility Results In Open Petri Dish [4, 9]: −
Sterility Results In 2.48 mm × 50 cm lumen [4, 10]: −
Sterility Results In 2.48 mm × 75 cm lumen [4, 10]: +
Sterility Results In 2.48 mm × 100 cm lumen [4, 10]: +
Sterility Results In Open Petri Dish [4, 10]: −
Sterility Results In 2.48 mm × 50 cm lumen [5, 11]: −
Sterility Results In 2.48 mm × 75 cm lumen [5, 11]: +
Sterility Results In 2.48 mm × 100 cm lumen [5, 11]: +
Sterility Results In Open Petri Dish [5, 11]: −
Sterility Results In 2.48 mm × 50 cm lumen [5, 12]: −
Sterility Results In 2.48 mm × 75 cm lumen [5, 12]: −
Sterility Results In 2.48 mm × 100 cm lumen [5, 12]: +
Sterility Results In Open Petri Dish [5, 12]: −
Sterility Results In 2.48 mm × 50 cm lumen [5, 13]: −
Sterility Results In 2.48 mm × 75 cm lumen [5, 13]: −
Sterility Results In 2.48 mm × 100 cm lumen [5, 13]: −
Sterility Results In Open Petri Dish [5, 13]: −
Sterility Results In 2.48 mm × 50 cm lumen [5, 14]: −
Sterility Results In 2.48 mm × 75 cm lumen [5, 14]: −
Sterility Results In 2.48 mm × 100 cm lumen [5, 14]: −
Sterility Results In Open Petri Dish [5, 14]: −
Sterility Results In 2.48 mm × 50 cm lumen [5, 15]: −
Sterility Results In 2.48 mm × 75 cm lumen [5, 15]: −
Sterility Results In 2.48 mm × 100 cm lumen [5, 15]: −
Sterility Results In Open Petri Dish [5, 15]: −
Sterility Results In 2.48 mm × 50 cm lumen [5, 16]: −
Sterility Results In 2.48 mm × 75 cm lumen [5, 16]: −
Sterility Results In 2.48 mm × 100 cm lumen [5, 16]: −
Sterility Results In Open Petri Dish [5, 16]: −
Sterility Results In 2.48 mm × 50 cm lumen [5, 17]: −
Sterility Results In 2.48 mm × 75 cm lumen [5, 17]: −
Sterility Results In 2.48 mm × 100 cm lumen [5, 17]: +
Sterility Results In Open Petri Dish [5, 17]: −
Sterility Results In 2.48 mm × 50 cm lumen [5, 18]: −
Sterility Results In 2.48 mm × 75 cm lumen [5, 18]: +
Sterility Results In 2.48 mm × 100 cm lumen [5, 18]: +
Sterility Results In Open Petri Dish [5, 18]: −
Sterility Results In 2.48 mm × 50 cm lumen [6, 19]: −
Sterility Results In 2.48 × 75 cm Lumen [6, 19]: −
Sterility Results In 2.48 × 100 cm lumen [6, 19]: −
Sterility Results In Open Petri Dish [6, 19]: −
Sterility Results In 2.48 mm × 50 cm lumen [6, 20]: −
Sterility Results In 2.48 × 75 cm Lumen [6, 20]: +
Sterility Results In 2.48 × 100 cm lumen [6, 20]: +
Sterility Results In Open Petri Dish [6, 20]: −
